# Measurements from patent US9199947B2, “Biaryl-propionic acid derivatives and their use as pharmaceuticals” (SANOFI, priority 2013, dated 2015).
# Target: Recombinant human cathepsin A (Homo sapiens (Human), UniProt P10619)
# Test: Cathepsin A inhibitory activity (Bodipy FL-labeled bradykinin substrate, microfluidic capillary electrophoresis)
# Assay type: biochemical
# Details: Cathepsin A inhibitory activity, read-out: CATHA IC50
# Method: Pharmacological Tests a) Cathepsin a Inhibitory Activity
# Recombinant human cathepsin A (residues 29-480, with a C-terminal 10-His tag; R&D Systems, #1049-SE) was proteolytically activated with recombinant human cathepsin L (R&D Systems, #952-CY). Briefly, cathepsin A was incubated at 10 μg/ml with cathepsin L at 1 μg/ml in activation buffer (25 mM 2-(morpholin-4-yl)-ethanesulfonic acid (MES), pH 6.0, containing 5 mM dithiothreitol (DTT)) for 15 min at 37° C.
# The activated cathepsin A was diluted in assay buffer (25 mM MES, pH 5.5, containing 5 mM DTT) and mixed with the test compound (dissolved in assay buffer containing (v/v) 3% DMSO) or, in the control experiments, with the vehicle in a multiple assay plate. After incubation for 15 min at room temperature, as substrate then bradykinin carrying an N-terminal® Bodipy FL (4,4-difluoro-5,7-dimethyl-4-bora-3a,4a-diaza-s-indacene-3-propionyl) label (JPT Peptide Technologies GmbH; dissolved in assay buffer) was added to the mixture. The final concentration of cathepsin A was 833 ng/ml and the final concentration of labeled bradykinin 2 μM. After incubation for 15 min at room temperature the reaction was stopped by the addition of stop buffer (130 mM 2-(4-(2-hydroxy-ethyl)-piperazin-1-yl)-ethanesulfonic acid, pH 7.4, containing (v/v) 0.013%° Triton X-100, 0.13% Coating Reagent 3 (Caliper Life Sciences), 6.5% DMSO and 20 μM ebelactone B (Sigma, #E0886)).
# Uncleaved substrate and product were then separated by a microfluidic capillary electrophoresis on a LabChip® 3000 Drug Discovery System (12-Sipper-Chip; Caliper Life Sciences) and quantified by determination of the respective peak areas. Substrate turnover was calculated by dividing product peak area by the sum of substrate and product peak areas, and the enzyme activity and the inhibitory effect of the test compound thus quantified.
# Recombinant human cathepsin A, sequence (P10619 29-326): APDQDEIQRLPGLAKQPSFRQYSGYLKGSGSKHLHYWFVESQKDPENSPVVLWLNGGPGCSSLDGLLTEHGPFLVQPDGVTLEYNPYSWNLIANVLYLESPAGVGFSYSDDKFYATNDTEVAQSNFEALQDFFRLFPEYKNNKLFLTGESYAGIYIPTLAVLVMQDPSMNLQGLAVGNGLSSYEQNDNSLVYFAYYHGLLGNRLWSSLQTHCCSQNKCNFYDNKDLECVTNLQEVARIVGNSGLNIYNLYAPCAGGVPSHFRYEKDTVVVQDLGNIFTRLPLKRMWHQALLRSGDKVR
# Recombinant human cathepsin A, sequence (P10619 327-480): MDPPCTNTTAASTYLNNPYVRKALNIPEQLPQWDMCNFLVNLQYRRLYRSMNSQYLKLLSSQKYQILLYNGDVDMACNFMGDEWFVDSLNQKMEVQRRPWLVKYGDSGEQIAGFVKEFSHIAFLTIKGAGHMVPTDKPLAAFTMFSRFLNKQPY
row,IC50 [µM],SMILES
1,0.707,CC(=O)c1ccccc1-c1cc(F)cc(C(CC(=O)O)c2ncc(C)s2)c1 (stereo not shown) [compound 121]
2,1.45,O=C(O)CC(c1cc(F)cc(-c2cccc(F)c2F)c1)c1ncco1 (stereo not shown) [compound 129]
3,4.94,COc1ccc(-c2ccccc2)cc1C(CC(=O)O)c1nccs1 (stereo not shown) [compound 168]
4,1.7,Cc1cnc(C(CC(=O)O)c2cc(F)cc(-c3ccccc3C(=O)N(C)C)c2)s1 (stereo not shown) [compound 132]
5,0.649,Cc1cnc(C(CC(=O)O)c2cc(F)cc(-c3cc(F)ccc3F)c2)s1 (stereo not shown) [compound 120]
6,20.6,Cc1nnc(C(CC(=O)O)c2cccc(-c3ccncc3)c2)o1 (stereo not shown) [compound 148]
7,1.23,Cc1cnc(C(CC(=O)O)c2cc(F)cc(-c3ccccc3C(N)=O)c2)s1 (stereo not shown) [compound 127]
8,0.437,Cc1ccc(F)c(-c2cc(F)cc(C(CC(=O)O)c3ncc(C)s3)c2)c1 (stereo not shown) [compound 118]
9,6.71,Cc1nnc(C(CC(=O)O)c2cccc(-c3cccnc3)c2)o1 (stereo not shown) [compound 147]
10,2.03,CC(=O)c1ccccc1-c1cc(F)cc(C(CC(=O)O)c2ncco2)c1 (stereo not shown) [compound 136]
11,1.16,Cc1ccc(-c2cc(F)cc(C(CC(=O)O)c3ncco3)c2)c(F)c1 (stereo not shown) [compound 125]
12,0.78,Cc1cnc(C(CC(=O)O)c2cc(F)cc(-c3ccccc3F)c2)s1 (stereo not shown) [compound 122]
13,1.44,Cc1cnc(C(CC(=O)O)c2cc(Cl)cc(-c3ccccc3C(=O)N(C)C)c2)s1 (stereo not shown) [compound 116]
14,4.74,Cc1nnc(C(CC(=O)O)c2cccc(-c3ccccc3C#N)c2)o1 (stereo not shown) [compound 146]
15,2.03,N#Cc1ccccc1-c1cc(F)cc(C(CC(=O)O)c2ncco2)c1 (stereo not shown) [compound 137]
16,8.65,Cc1cnc(C(CC(=O)O)c2cc(F)cc(-c3ccncc3)c2)s1 (stereo not shown) [compound 139]

# Same assay, conditions: read-out: CATHA IC50
row,SMILES,IC50 [µM]
1,Cc1cccc(-c2cccc(C(CC(=O)O)c3nccs3)c2)c1 (stereo not shown) [compound 3],0.784
2,O=C(O)CC(c1cccc(-c2cccc(OC(F)(F)F)c2)c1)c1nccs1 (stereo not shown) [compound 28],2.25
3,Cn1nccc1-c1cccc(C(CC(=O)O)c2nccs2)c1 (stereo not shown) [compound 42],15.1
4,N#CCOc1cccc(-c2cccc(C(CC(=O)O)c3nccs3)c2)c1 (stereo not shown) [compound 27],1.94
5,COc1ccc(-c2cc(F)ccc2F)cc1C(CC(=O)O)c1ncc(C)s1 (stereo not shown) [compound 63],0.975
6,COc1ccc(-c2ccc(F)cc2Cl)cc1C(CC(=O)O)c1ncc(C)s1 (stereo not shown) [compound 87],6.36
7,Cc1cccc(-c2cccc(C(CC(=O)O)c3nccs3)c2)c1C (stereo not shown) [compound 9],2.48
8,O=C(O)CC(c1cccc(-c2ccc(F)cc2)c1)c1nccs1 (stereo not shown) [compound 14],4.3
9,CCOc1cccc(-c2cccc(C(CC(=O)O)c3nccs3)c2)c1 (stereo not shown) [compound 24],1.5
10,COc1cccc(-c2cccc(C(CC(=O)O)c3nccs3)c2)c1 (stereo not shown) [compound 21],1.18
11,COc1cccc(-c2cccc(C(CC(=O)O)c3nccs3)c2)c1F (stereo not shown) [compound 17],0.588
12,COc1ccc(-c2ccc(OC)c(C(CC(=O)O)c3ncc(C)s3)c2)cc1 (stereo not shown) [compound 92],7.81
13,COc1ccc(-c2ccc(Cl)cc2)cc1C(CC(=O)O)c1ncc(C)s1 (stereo not shown) [compound 76],3.2
14,COc1cccc(-c2ccc(OC)c(C(CC(=O)O)c3ncc(C)s3)c2)c1 (stereo not shown) [compound 85],5.56
15,COc1ccc(-c2cc(Cl)ccc2F)cc1C(CC(=O)O)c1ncc(C)s1 (stereo not shown) [compound 65],1.23
16,COc1ccc(-c2cccc(C#N)c2)cc1C(CC(=O)O)c1ncc(C)s1 (stereo not shown) [compound 94],9.26
17,COc1cc(F)c(-c2cccc(C(CC(=O)O)c3nccs3)c2)cc1F (stereo not shown) [compound 22],1.32
18,CCCOc1cccc(-c2cccc(C(CC(=O)O)c3nccs3)c2)c1 (stereo not shown) [compound 26],1.67
19,COc1ccc(-c2cccc(C(F)(F)F)c2)cc1C(CC(=O)O)c1ncc(C)s1 (stereo not shown) [compound 91],7.77
20,O=C(O)CC(c1cccc(-c2ccnc(F)c2)c1)c1nccs1 (stereo not shown) [compound 46],23.6
21,CCCOc1ccc(F)c(-c2cccc(C(CC(=O)O)c3nccs3)c2)c1 (stereo not shown) [compound 20],1.11
22,Cc1ccccc1-c1cccc(C(CC(=O)O)c2nccs2)c1 (stereo not shown) [compound 12],3.54
23,Cc1cnc(C(CC(=O)O)c2cccc(-c3ccncc3F)c2)s1 (stereo not shown) [compound 57],7.06
24,COc1ccc(-c2cccc(C(CC(=O)O)c3nccs3)c2)cn1 (stereo not shown) [compound 39],8.35
25,COc1ccc(-c2cc(F)ccc2Cl)cc1C(CC(=O)O)c1ncc(C)s1 (stereo not shown) [compound 66],1.25

row,SMILES,IC50 [µM]
1,COc1ccc(-c2ccccc2C(N)=O)cc1C(CC(=O)O)c1ncc(C)s1 (stereo not shown) [compound 97],19.3
2,O=C(O)CC(c1cccc(-c2cccnc2Cl)c1)c1nccs1 (stereo not shown) [compound 41],11.6
3,Cc1nc(C(CC(=O)O)c2cccc(Br)c2)sc1C (stereo not shown) [compound 2],7.78
4,COc1ccc(-c2ccccc2Cl)cc1C(CC(=O)O)c1ncc(C)s1 (stereo not shown) [compound 88],6.69
5,COc1ccc(-c2cccc(F)c2F)cc1C(CC(=O)O)c1ncc(C)s1 (stereo not shown) [compound 69],1.77
6,O=C(O)CC(c1cccc(-c2ccncc2F)c1)c1nccs1 (stereo not shown) [compound 47],24.8
7,COc1ccc(-c2cccc(Cl)c2C)cc1C(CC(=O)O)c1ncc(C)s1 (stereo not shown) [compound 67],1.31
8,COc1ccc(-c2ccc(C#N)cc2)cc1C(CC(=O)O)c1ncc(C)s1 (stereo not shown) [compound 93],8.8
9,Cc1cnc(C(CC(=O)O)c2cccc(-c3ccccc3C(N)=O)c2)s1 (stereo not shown) [compound 56],5.38
10,COc1ccc(-c2ccc(Cl)cc2F)cc1C(CC(=O)O)c1ncc(C)s1 (stereo not shown) [compound 79],3.57
11,O=C(O)CC(c1cccc(-c2cccc(OCc3ccccc3)c2)c1)c1nccs1 (stereo not shown) [compound 35],2.77
12,COc1ccc(-c2ccccc2C(F)(F)F)cc1C(CC(=O)O)c1ncc(C)s1 (stereo not shown) [compound 95],10.2
13,Cc1cnc(C(CC(=O)O)c2cccc(-c3cc(Cl)ccc3F)c2)s1 (stereo not shown) [compound 50],0.228
14,COc1ccc(-c2ccc(OC(F)(F)F)cc2)cc1C(CC(=O)O)c1ncc(C)s1 (stereo not shown) [compound 89],6.73
15,COc1cccc(-c2cccc(C(CC(=O)O)c3ncc(C)s3)c2)c1F (stereo not shown) [compound 51],0.397
16,Cc1cnc(C(CC(=O)O)c2cccc(-c3ccncc3)c2)s1 (stereo not shown) [compound 60],13.7
17,COc1ccc(-c2cc(F)ccc2C)cc1C(CC(=O)O)c1ncc(C)s1 (stereo not shown) [compound 64],1.2
18,Nc1ccc(-c2cccc(C(CC(=O)O)c3nccs3)c2)c(F)n1 (stereo not shown) [compound 23],1.39
19,O=C(O)CC(c1cccc(-c2cccc(OCC(F)(F)F)c2)c1)c1nccs1 (stereo not shown) [compound 34],2.46
20,COc1ccc(-c2ccc(C)cc2)cc1C(CC(=O)O)c1ncc(C)s1 (stereo not shown) [compound 68],1.59
21,COc1ccc(-c2cccc(C)c2F)cc1C(CC(=O)O)c1ncc(C)s1 (stereo not shown) [compound 73],2.42
22,COc1ccc(-c2ccccc2F)cc1C(CC(=O)O)c1ncc(C)s1 (stereo not shown) [compound 72],2.34
23,COc1ccc(-c2cc(C)ccc2F)cc1C(CC(=O)O)c1ncc(C)s1 (stereo not shown) [compound 86],5.68
24,O=C(O)CC(c1cccc(-c2ccc(Cl)c(OCc3ccccc3)c2)c1)c1nccs1 (stereo not shown) [compound 38],7.87
25,O=C(O)CC(c1cccc(-c2ccccc2)c1)c1nccs1 (stereo not shown) [compound 10],2.59

# Next, values leading:
row,IC50 [µM],SMILES
1,0.406,Cc1cnc(C(CC(=O)O)c2cc(Cl)cc(-c3cccc(OC(F)(F)F)c3)c2)s1 (stereo not shown) [compound 111]
2,0.335,COc1cc(F)c(-c2cc(Cl)cc(C(CC(=O)O)c3ncc(C)s3)c2)c(F)c1 (stereo not shown) [compound 108]
3,1.06,Cc1cnc(C(CC(=O)O)c2cc(Cl)cc(-c3cccnc3)c2)s1 (stereo not shown) [compound 115]
4,0.232,Cc1ccc(F)c(-c2cc(Cl)cc(C(CC(=O)O)c3ncc(C)s3)c2)c1 (stereo not shown) [compound 105]
5,0.184,Cc1cnc(C(CC(=O)O)c2cc(Cl)cc(-c3cccc(C)c3F)c2)s1 (stereo not shown) [compound 102]
6,0.563,COc1ccc(-c2cc(Cl)cc(C(CC(=O)O)c3ncc(C)s3)c2)c(F)c1 (stereo not shown) [compound 113]
7,0.404,Cc1cnc(C(CC(=O)O)c2cc(Cl)cc(-c3ccccc3C(N)=O)c2)s1 (stereo not shown) [compound 110]
